One data set is described as follows: Solubility. It counts as physicochemical.
The next data set deals with numerous bacteria. Nature of the data set: Bacteriostatic activity (general statement). It counts as cell-based. Particulars: including antibiotic-resistant bacteria. The source says:
For each organism, the lowest concentration of substance has been determined which, under the defined conditions, prevents all visible development in an appropriate nutritive broth. The results of various determinations are shown in Table VI, wherein the minimal bacteriostatic concentrations are expressed as micrograms of substance per cubic centimeter of experimental medium.

For the next data set, the system named is Klebsiella pneumoniae. Nature of the data set: Activity by turbidimetric estimation against a 9865 RP control. It counts as cell-based. Particulars: purified product; units per mg, Klebsiella pneumoniae growth inhibition. The text has this:
The following non-limitative Examples illustrate the invention. […] This activity is expressed in units (u) per mg. for solid products and in units per cc. for solutions. (The unit is defined as the smallest quantity of product which, dissolved in 1 cc. of an appropriate medium, inhibits the growth of Klebsiella pneumoniae under the conditions in question.)

The subject of data set [1] is transplantable tumours in the mouse. Nature of the data set: Anti-cancer activity (general statement).

Structures can show the parent of a compound that is named as a salt. Where two headings read alike, the source gives them in different places.

Regarding `COc1cccc2c1C(=O)c1c(O)c3c(c(O)c1C2=O)C[C@@](O)(C(C)=O)C[C@@H]3O[C@H]1C[C@H](N)[C@H](O)[C@H](C)O1` [13057 RP hydrochloride], the solubility in chloroform entry in “Solubility” (chloroform) is “slightly soluble”. The solubility in water entry in “Solubility” was “soluble”.

As to `COc1cccc2c1C(=O)c1c(O)c3c(c(O)c1C2=O)C[C@@](O)(C(C)=O)C[C@@H]3O[C@H]1C[C@H](N)[C@H](O)[C@H](C)O1` [13057 RP], in the data set with numerous bacteria, the bacteriostatic activity entry was “exerted against numerous bacteria”. Besides, the activity with Klebsiella pneumoniae is 160 μ/mg. For the same compound, the solubility in benzene result in the data set “Solubility” (benzene) is on record as “particularly insoluble”. Besides, the “solubility in diethyl ether” value in the data set “Solubility” (diethyl ether) was “particularly insoluble”. The solubility in ketones entry in “Solubility” (ketones) is given as “very slightly soluble”. For the same compound, in “Solubility”, the solubility in water result is given as “very slightly soluble”. The anti-cancer activity entry is recorded as “most interesting of the new antibiotics” in data set [1] and “very pronounced” in data set [1] (listed as 13057 R.P.).
